Reference: patent US20220411381A1, “PYRIMIDINEDIONE DERIVATIVES” (Bayer Aktiengesellschaft, priority 2019, published 2022)
Like-named read-outs stand apart in the source and are kept apart here.

How the values were obtained:
[1] = target: T1, recombinant human BCAT1 enzyme (Homo sapiens, UniProt P54687); test: In vitro assay 1a: BCAT1 biochemical assay (coupled LeuDH/NADH fluorescence readout); conditions: recombinant human BCAT1 […], 32° C., 100 μM leucine, 50 μM α-ketoglutarate, NADH fluorescence over 90 min; read-out: BCAT1 IC50
T1 construct: purchased ATGen (South Korea) ATGP1479
T1 sequence (P54687 1-386): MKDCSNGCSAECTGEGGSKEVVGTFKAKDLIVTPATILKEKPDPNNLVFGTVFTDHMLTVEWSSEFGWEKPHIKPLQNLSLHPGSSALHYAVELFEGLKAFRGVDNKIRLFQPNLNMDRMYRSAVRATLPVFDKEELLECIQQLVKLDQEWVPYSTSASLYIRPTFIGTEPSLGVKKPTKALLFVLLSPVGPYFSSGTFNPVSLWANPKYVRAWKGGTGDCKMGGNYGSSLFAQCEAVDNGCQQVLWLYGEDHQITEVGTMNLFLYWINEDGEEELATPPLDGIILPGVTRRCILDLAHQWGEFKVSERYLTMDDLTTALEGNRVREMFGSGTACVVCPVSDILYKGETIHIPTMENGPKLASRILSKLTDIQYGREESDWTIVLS
Outline: (§1)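 Transamination of leucine to KIC coupled to LeuDH-driven NADH-dependent reduction of KIC, NADH consumption read by fluorescence; 32° C in 50 mM HEPES pH 8.0, 50 mM ammonium sulfate, 1 mM EDTA, 2 mM DTT, 0.01% BSA, 0.005% Brij 35, 0.5 μM PLP.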

[2] = tested on: U87-MG cells; test: In vitro assay 2: BCAT cellular assay, leucine in medium of U87-MG cells; type: cell-based; conditions: 24 hours incubation, leucine level in medium (LeuDH/diaphorase/resazurin readout)
Description: (§2) In Vitro Assay 2: BCAT Cellular Assay
(§3) Levels of leucine were measured in medium of different tumor cell lines. The enzyme BOAT (Branched chain amino acid transferase) catalyzes the consumption of leucine.
(§4) Cells (U87-MG and MDA-MB231 from ATCC) were grown in Dulbecco's Modified Eagle Medium (DMEM) containing 10% fetal calf serum. They were harvested by trypsin and seeded into 96-well plates. Cells were incubated overnight at 37° C. in an atmosphere containing 5% carbon dioxide. The next day test compounds were added to each cell well. The final concentration of dimethylsulfoxide (DMSO) was 0.1% and DMSO controls were included. The plates were then placed in an incubator for 24 hours.
(§5) Leucine was measured in an enzymatic readout with leucine dehydrogenase (LeuDH) and diaphorase. Medium is deproteinized with perchloric acid. 30 μl of 1 M aqueous perchloric acid was added to each well and the plates were centrifuged.

[3] = target: T2, recombinant human BCAT2 enzyme (Homo sapiens, UniProt O15382); test: In vitro assay 1b: BCAT2 biochemical assay (coupled LeuDH/NADH fluorescence readout); conditions: recombinant human BCAT2 […], 32° C., 100 μM leucine, 50 μM α-ketoglutarate, NADH fluorescence over 90 min; read-out: BCAT2 IC50; note: recombinant human BCAT2 0.75 nM
T2 construct: purchased ATGen (South Korea) ATGP1523
T2 sequence (O15382 28-392): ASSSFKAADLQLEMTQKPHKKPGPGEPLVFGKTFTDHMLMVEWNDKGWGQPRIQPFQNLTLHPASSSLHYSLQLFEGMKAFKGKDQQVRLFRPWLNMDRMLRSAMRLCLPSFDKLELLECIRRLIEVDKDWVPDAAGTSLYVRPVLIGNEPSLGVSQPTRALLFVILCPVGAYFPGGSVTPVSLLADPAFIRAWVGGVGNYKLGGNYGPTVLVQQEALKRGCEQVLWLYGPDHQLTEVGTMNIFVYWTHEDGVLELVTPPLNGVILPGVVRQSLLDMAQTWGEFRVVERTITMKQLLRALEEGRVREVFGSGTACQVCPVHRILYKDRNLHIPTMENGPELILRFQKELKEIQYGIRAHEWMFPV
Outline: as §1

[4] = tested on: MDA-MB231 cells; test: In vitro assay 2: BCAT cellular assay, leucine in medium of MDA-MB231 cells; type: cell-based; conditions: 24 hours incubation, leucine level in medium (LeuDH/diaphorase/resazurin readout), read-out: MDAMB-231 IC50
Description: as §2, §3, §4, §5

| SMILES | IC50 [1] | IC50 ([2]; Homo sapiens, U-87 MG, 24 h) | IC50 [3] | IC50 [4] | IC50 ([4]; Homo sapiens, MDA-MB-231, 24 h) | IC50 [2] |
| --- | --- | --- | --- | --- | --- | --- |
| Cc1cc(C#N)c(Oc2ccccc2Cl)cc1-n1c(=O)cc(C(F)(F)F)[nH]c1=O (racemic) [Example 10, 2-(2-Chlorophenoxy)-4-[2,6-dioxo-4-(trifluoromethyl)-3,6-dihydropyrimidin-1 (2H)-yl]-5-methylbenzonitrile (rac)] | 390 nM | 13 µM | 6000 nM | > 30 µM | 30 µM |  |
| COc1cc(C#N)c(Oc2ccccc2Cl)cc1-n1c(=O)cc(C(F)(F)F)[nH]c1=O (racemic) [Example 15, 2-(2-Chlorophenoxy)-4-[2,6-dioxo-4-(trifluoromethyl)-3,6-dihydropyrimidin-1(2H)-yl]-5-methoxybenzonitrile (rac)] | 148 nM | 20 µM | 830 nM |  | 17 µM |  |
| COc1cc(C#N)c(Oc2ccccc2Cl)cc1-n1c(=O)cc(C(F)(F)F)[nH]c1=O (single isomer, unassigned) [Example 16, 2-(2-Chlorophenoxy)-4-[2,6-dioxo-4-(trifluoromethyl)-3,6-dihydropyrimidin-1(2H)-yl]-5-methoxybenzonitrile (atrop 1)] | 150 nM | 5.4 µM | 2500 nM |  | 10.8 µM |  |
| COc1cc(C#N)c(Oc2ccccc2C)cc1-n1c(=O)cc(S(=O)(=O)c2ccccc2)[nH]c1=O (single isomer, unassigned) [Example 77, 4-[4-(Benzenesulfonyl)-2,6-dioxo-3,6-dihydropyrimidin-1(2H)-yl]-5-methoxy-2-(2-methylphenoxy)benzonitrile (atrop 1)] |  | 16.5 µM | 770 nM | 16 µM |  |  |
| COc1cc(C#N)c(Oc2ccccc2C)cc1-n1c(=O)cc(S(=O)(=O)c2ccccc2)[nH]c1=O (single isomer, unassigned) [Example 78, 4-[4-(Benzenesulfonyl)-2,6-dioxo-3,6-dihydropyrimidin-1(2H)-yl]-5-methoxy-2-(2-methylphenoxy)benzonitrile (atrop 2)] |  |  | 140 nM | 3.8 µM |  | 12.5 µM |
| Cc1ccccc1Oc1cc(-n2c(=O)cc(Br)[nH]c2=O)c(F)cc1C#N [Example 3, 4-(4-Bromo-2,6-dioxo-3,6-dihydropyrimidin-1(2H)-yl)-5-fluoro-2-(2-methylphenoxy)benzonitrile] | 315 nM | 11.1 µM | 5500 nM |  | > 30 µM |  |
| Cc1ccccc1Oc1cc(-n2c(=O)cc(C(F)(F)Cl)[nH]c2=O)c(F)cc1C#N [Example 40, 4-{4-[Chloro(difluoro)methyl]-2,6-dioxo-3,6-dihydropyrimidin-1(2H)-yl}-5-fluoro-2-(2-methylphenoxy)benzonitrile] | 445 nM | 4.63 µM | 2200 nM |  | 12 µM |  |
| N#Cc1ccc(-n2c(=O)cc(C(F)(F)F)[nH]c2=O)cc1Oc1ccccc1Cl [Example 46, 2-(2-Chlorophenoxy)-4-[2,6-dioxo-4-(trifluoromethyl)-3,6-dihydropyrimidin-1 (2H)-yl]benzonitrile] | 675 nM | 25 µM | 6000 nM |  | > 30 µM |  |
| Cc1ccccc1Oc1cc(-n2c(=O)cc(-c3cccc(Cl)c3)[nH]c2=O)c(F)cc1C#N [Example 70, 4-[4-(3-Chlorophenyl)-2,6-dioxo-3,6-dihydropyrimidin-1(2H)-yl]-5-fluoro-2-(2-methylphenoxy)benzonitrile] | 1330 nM | 30 µM |  |  | > 30 µM | > 30 µM |
| Cc1ccccc1Oc1cc(-n2c(=O)cc(C(=O)NCC(F)(F)F)[nH]c2=O)c(F)cc1C#N [Example 71, 1-[4-Cyano-2-fluoro-5-(2-methylphenoxy)phenyl]-2,6-dioxo-N-(2,2,2-trifluoroethyl)-1,2,3,6-tetrahydropyrimidine-4-carboxamide] | 1750 nM | > 30 µM |  |  | > 30 µM |  |
